Like-named read-outs stand apart in the source and are kept apart here. Where only a bound is given, the exact number is not on record here.

Series [1] can be described thus: Thermal relaxation of PSS cis states (Arrhenius extrapolation). Format: physicochemical. As to conditions: approximate; HBSS buffer + 1% DMSO, extrapolated to 20 °C. The procedure:
Experimental procedures – Photochemistry
UV−Vis spectra were recorded using a Thermo-scientific Evolution 201 PC spectrophotometer equipped with a thermostated cell holder set at 20 °C. Fits of UV−vis spectroscopy data were generated using Prism 10.1.0. Illumination for almost all photochemical experiments was executed using a Sutter instruments Lambda LS with a 300 W full-spectrum lamp connected to a Sutter instruments Lambda 10-3 optical filter changer equipped with 360 ± 10 nm, 434 ± 9 nm 494 ± 9 nm, or a Lambda 721 optical beam combiner system equipped with 365 ± 11 nm and 506 ± 14 nm filter. The light intensity used for the lambda 10-3 optical filter is 0.93 mW/mm2 using the 360 ± 20 nm filter, 0.79 mW/mm2 for the 434 ± 9 nm filter, 0.77 mW/mm2 for the 494 ± 9 nm filter as measured using a Thorlabs PM16−401 power meter. The light intensity used for the lambda 721 optical beam combiner is 200 mW using the 365 ± 11 nm filter and 60 mW for the 506 ± 12 nm filter. For photochemical analyses, illuminations were performed in Hellma Suprasil quartz 114QS cuvettes. For the dynamic illuminations, a 4-way cuvette holder (Avantes) was used. The left outlet of the holder is connected to an Avantes AvaLight-DH-S-BAL Deuterium lamp. The right outlet is connected through a fiber to an AvaSpec UV/Vis spectrometer. The lower outlet is connected to a Lambda 721 optical beam combiner system equipped with 365 ± 11 nm and 506 ± 14 nm filter illumination means. The upper outlet is covered with a black cap. The temperature of the solution in the cuvette (20 °C) is controlled by Q-blue Wireless Temperature Control software.
Thermal relaxation experiments and Arrhenius extrapolations were performed according to Priimagi et al20, using a compound concentration of 25 μM in HBSS +1% DMSO and temperatures of 50, 60, and 70 °C. Illuminations for pharmacological experiments were performed in cylindrical clear glass vials with a volume of 4.5 mL. The typical distance between light source and vial or cuvette was 2 cm.

A short description of series [2]: Detailed photochemical characterization of 3f (1H NMR, UV-vis switching cycles). The series is classed as physicochemical. The procedure: Figure S10. Photochemical properties of 3f. (A) UV-vis spectra of 25 µM 3f in HBSS buffer containing 1% DMSO in the dark, after illumination to PSScis with 365 ± 10 nm for 2 min and after subsequent illumination to PSStrans with 506 ± 20 nm for 2 min. (B) Representative parts of LC−MS chromatograms of 3f in the dark, after illumination with 365 ± 10 nm for 300 s to reach PSScis and subsequently with 506 ± 20 nm for 300 s to reach PSStrans (full chromatograms […]
(C) Part of 1H NMR spectra of 10 mM 3f in DMSO-d6 (representing the two aromatic signals) in the dark, after illumination with 365 ± 10 nm for 600 s to reach PSScis and subsequently 506 ± 20 nm for 900 s to reach PSStrans (full spectra are shown in Figure S12). (D) Reversible isomerization cycles of 25 µM 3f in HBSS buffer containing 1% DMSO, repeatedly illuminated for 30 s with 365 ± 10 nm to reach PSScis and subsequently for […]
60 s with 506 ± 20 nm to reach PSStrans. […]
states in the 400-550 nm area (Figure S10A). This allows efficient trans-PSScis photoswitching in HBSS buffer using UV light (365 nm) and PSScis-PSStrans back-switching with green light (506 nm). LC-MS analysis (Figure S10B, S11) and, more quantitively, 1H NMR analysis (Figure S10C, S12) reveal high PSScis and PSStrans values for 3f (98% and >95% cis isomer for PSScis by LC-MS and 1H NMR analysis, respectively; 93% and 93% trans isomer for PSStrans by LC-MS and 1H NMR analysis, respectively). These analyses also confirmed that no photodecomposition occurs upon illumination with either 365 or 506 nm. Reversible isomerization cycles could be conducted in HBSS buffer without any photobleaching (Figure […]
S10D). […] Subsequently, the […]
UV−Vis spectra were recorded using a Thermo-scientific Evolution 201 PC spectrophotometer equipped with a thermostated cell holder set at 20 °C. […] The light intensity used for the lambda 10-3 optical filter is 0.93 mW/mm2 using the 360 ± 20 nm filter, 0.79 mW/mm2 for the 434 ± 9 nm filter, 0.77 mW/mm2 for the 494 ± 9 nm filter as measured using a Thorlabs PM16−401 power meter. […]

Series [3] in a line: Nephelometry (qualitative solubility comparison). As to conditions: trans state for VUF14862, either state for 3f. The series is classed as physicochemical.
Another series has as its target hH3R (Homo sapiens, UniProt Q9Y5N1). The experiment in a line: Competition binding of non-labeled ligands with trans-[3H]3f on hH3R-expressing cell homogenates. As to conditions: read-out: pKi in competition with trans-[3H]3f (converted).
The next series deals with T1, H1R (Homo sapiens, UniProt P35367).
T1 construct: HA; expressed in transfected cells; host or cells: HEK293T, transient transfection (pcDEF3), cell homogenates
T1 sequence (P35367 whole entry): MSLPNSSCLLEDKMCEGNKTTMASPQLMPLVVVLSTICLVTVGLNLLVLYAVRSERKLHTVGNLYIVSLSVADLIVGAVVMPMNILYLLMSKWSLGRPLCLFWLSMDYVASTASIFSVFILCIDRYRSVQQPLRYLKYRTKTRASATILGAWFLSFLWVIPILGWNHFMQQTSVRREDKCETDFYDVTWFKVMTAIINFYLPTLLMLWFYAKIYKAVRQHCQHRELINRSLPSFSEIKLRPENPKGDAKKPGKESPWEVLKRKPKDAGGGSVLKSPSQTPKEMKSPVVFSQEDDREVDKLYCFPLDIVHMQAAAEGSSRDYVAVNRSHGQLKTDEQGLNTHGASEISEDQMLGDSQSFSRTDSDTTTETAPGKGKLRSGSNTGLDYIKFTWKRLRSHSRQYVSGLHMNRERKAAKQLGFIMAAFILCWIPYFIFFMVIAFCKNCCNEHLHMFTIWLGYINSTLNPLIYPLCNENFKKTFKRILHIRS
The experiment in a line: Histamine receptor selectivity binding, [3H]mepyramine competition on cell homogenates expressing H1R. As to conditions: trans isomer; at concentrations lower than 1 μM; competition with [3H]mepyramine.

Another series addresses T2, H4R (Homo sapiens, UniProt Q9H3N8).
T2 construct: HA; expressed in transfected cells; host or cells: HEK293T, transient transfection (pcDEF3), cell homogenates
The experiment in a line: Histamine receptor selectivity binding, [3H]histamine competition on cell homogenates expressing H4R. As to conditions: trans isomer; at concentrations lower than 1 μM; competition with [3H]histamine.

Chain of hH3R (Q9Y5N1 whole entry): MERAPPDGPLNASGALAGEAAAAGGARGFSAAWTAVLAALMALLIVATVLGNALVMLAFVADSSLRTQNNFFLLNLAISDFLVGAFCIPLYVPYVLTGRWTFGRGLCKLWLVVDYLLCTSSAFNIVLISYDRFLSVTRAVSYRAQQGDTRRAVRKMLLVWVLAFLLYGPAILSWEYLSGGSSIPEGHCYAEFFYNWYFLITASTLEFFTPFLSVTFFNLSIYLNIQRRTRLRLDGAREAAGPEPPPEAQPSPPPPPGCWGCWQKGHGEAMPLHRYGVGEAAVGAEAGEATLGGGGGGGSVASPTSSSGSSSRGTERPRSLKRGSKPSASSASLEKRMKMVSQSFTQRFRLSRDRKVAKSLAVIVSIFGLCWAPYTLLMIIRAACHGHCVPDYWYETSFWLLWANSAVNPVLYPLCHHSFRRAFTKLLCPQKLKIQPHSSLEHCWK
T2 sequence (Q9H3N8 whole entry): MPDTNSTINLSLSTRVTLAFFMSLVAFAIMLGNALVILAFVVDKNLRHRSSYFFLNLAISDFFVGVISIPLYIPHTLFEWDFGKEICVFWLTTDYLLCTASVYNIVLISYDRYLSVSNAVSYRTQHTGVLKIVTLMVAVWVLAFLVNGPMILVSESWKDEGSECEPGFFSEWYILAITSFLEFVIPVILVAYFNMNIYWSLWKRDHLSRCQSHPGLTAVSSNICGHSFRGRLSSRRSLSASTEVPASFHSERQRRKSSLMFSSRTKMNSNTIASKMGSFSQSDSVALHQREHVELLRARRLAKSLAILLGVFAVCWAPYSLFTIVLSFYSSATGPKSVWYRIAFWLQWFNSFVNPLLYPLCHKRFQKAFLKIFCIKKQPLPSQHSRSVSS

For the compound `Cc1nn(C2CCN(C)CC2)c(C)c1/N=N/c1ccc(O[C@H]2C[C@H](N3CCCCC3)C2)cc1` [Compound 3f], the “Half-life (thermal relaxation of PSS cis state)” value in series [1] is listed as 13 days. For the same compound, the “PSScis (% cis isomer) by 1H NMR” value in series [2] (10 mM in DMSO-d6, 365 ± 10 nm for 600 s) is greater than 95%. Besides, in series [2] (10 mM in DMSO-d6, 506 ± 20 nm for 900 s), the “PSStrans (% trans isomer) by 1H NMR” value worked out at 93%. In addition, the photodecomposition upon illumination entry in series [2] (illumination with either 365 or 506 nm, LC-MS and 1H NMR) was “no”. Further, the “concentrations with tendency to aggregate/precipitate” value in series [3] is given as “not observed”. In addition, the results for the Ki at hH3R (unlabeled PSS cis state) and at hH3R (unlabeled trans isomer) were 0.02 µM and 0.001 µM, respectively. Further, the “binding to H1R” value at H1R was “does not bind”. Besides, the “binding to H4R” value on H4R is on record as “does not bind”.

Values taken from article PMC12257542, “A Radiolabeled Photoswitchable G Protein-Coupled Receptor Antagonist Enlightens Ligand Binding Kinetics Associated with Photoswitching” (Journal of the American Chemical Society, 2025).
